Assay: Human HepG2 cell viability assay in 384 well format
Type: toxicity, cell-based
Parameters: dose 125 nL, time 70.5 hour; concentration not given beside the values
Conditions: HepG2 cells, read-out: Inhibition

| Compound | cytotoxicity at 70.5 h [%] |
| --- | --- |
| O=C1CC(N(C(=O)c2ccc(-n3cccc3)cc2)C2CC2)C(=O)N1 (stereo not drawn) | -4.68 |
| COCCCN(C)Cc1nc2c(cnn2C)c(=O)[nH]1 | 42.4 |
| Cc1[nH]c2ccccc2c1-c1ccnc(NCCN2CCOCC2)n1 | 25.2 |
| CN1CCN(Cc2cn3c(n2)CN(C(=O)c2ccccn2)CC3)CC1 | -2.89 |
| COCC(=O)N1CCC(=O)N(C2CCCC2)Cc2cc(F)ccc21 | -5.37 |
| CN(C)c1ncccc1CNC(=O)N1CCCC1CN1CCCC1 (stereo not drawn) | 24.9 |
| CCOCC(=O)N1Cc2nccn2CC(CN(C)C)C1 (stereo not drawn) | 1.2 |
| COCCC(=O)N1CC2(CCN(Cc3ccoc3)C2)C1 | 33.7 |
| COc1cccc(CN2CCCC3(CCN(C(CO)CO)C3)C2)c1 (stereo not drawn) | -7.1 |
| CCCSc1ncc(-c2nccn2CCC(N)=O)cn1 | -13.6 |
| Cc1cc(F)ccc1NC(=O)NCC(C)N1CCOCC1 (stereo not drawn) | 32.7 |
| Cc1cc(NC(=O)NCCc2ccsc2)n(C)n1 | -3.08 |
| O=C(N[C@@H]1CN(Cc2ccco2)[C@@H]2CCCO[C@@H]21)c1cscn1 | -5.42 |
| COCc1noc(CN2C(=O)OC[C@@H]2C(C)C)n1 | 19.3 |
| Cc1nc(CN2CCC(CNC(=O)NCCC3CCC3)CC2)oc1C | 0.076 |
| CCc1noc(C2CCCCN2C(=O)c2sccc2C)n1 (stereo not drawn) | 12.2 |
| Cc1nccn1C1(C(=O)O)CCN(Cc2ccc3c(c2)OCCO3)CC1 | -3.95 |
| CCc1ccc(CN2CCC(CNS(=O)(=O)C3CC3)C2)nc1 (stereo not drawn) | -2.29 |
| Cc1csc(N2CCN(Cc3ccccn3)CC2)n1 | -9.56 |
| Cc1c(NCCOCC(F)(F)F)cccc1C(=O)N1CCCC1 | -10.8 |
| CCCS(=O)(=O)NC(=O)c1ccc(-n2nc(C)cc2C)cc1 | -6.42 |
| Cc1csc2nc3n(c(=O)c12)CCN(Cc1ccccn1)CC3 | 2.36 |
| CCOCC1CN(Cc2cccc(C#N)c2)Cc2nccn2C1 (stereo not drawn) | -1.89 |

| Compound | cytotoxicity at 70.5 h [%] |
| --- | --- |
| O=C(N[C@@H]1CC[C@@H](n2ccnc2)[C@@H]1O)c1cc2c(s1)CCC2 | 1.51 |
| Cc1nc(CN2CCCC(Cn3cc(CCO)nn3)C2)c2ccccn12 (stereo not drawn) | -5.43 |
| CCN(Cc1noc(CC(C)C)n1)Cc1cc2ccc(F)cc2[nH]c1=O | 0.157 |
| CC(Cc1ccccn1)N(C)C(=O)c1ncc[nH]1 (stereo not drawn) | -8.42 |
| CCc1nc2c(N3CCC4(CC3)CNC(=O)C4)ncnc2o1 | -3.31 |
| COCC(=O)NCc1cc(=O)n2c(n1)CN(Cc1cccs1)CCC2 | -6.99 |
| COc1cc2c(nn1)CCN(Cc1noc(CC(C)C)n1)C2 | -4.19 |
| Cc1nc(CN2CCCC(NCc3ccc(C(N)=O)cc3)C2)no1 (stereo not drawn) | -4.31 |
| Cc1nc(C(=O)N(C)C)nn1-c1ccccc1C(C)C | 0.366 |
| CCCn1ccnc1-c1cccc(NC(=O)C2CCCOC2)c1 (stereo not drawn) | -5.58 |
| COc1ccc(OC)c(NC(=O)c2cc3c([nH]c2=O)CCCC3=O)c1 | -4.78 |
| CCN1CCC2(CCC(=O)N2Cc2cccc(C)n2)CC1 | -4.89 |
| COCCNC(=O)[C@H]1CN(Cc2csc(C)n2)C[C@H]2OCC[C@@H]12 | -3.29 |
| CN(C)CCn1nc(C2CCN(Cc3ccccc3)C2)c2cccnc21 (stereo not drawn) | 31.8 |
| c1ccc(OCCN2CCc3c(ncn3C3CC3)C2)cc1 | -4.85 |
| CN(C)C(=O)CNC(=O)CCn1ncc2c(Cl)cccc21 | -5.6 |
| Cc1cc(C(=O)N2CCn3cc(CN4CCCCC4)nc3C2)no1 | -9.93 |
| CN(CC1CC1)C(=O)Cc1csc(-c2ncccn2)n1 | 0.625 |
| Cc1cc(-c2cc(N)c(=O)n(CC(=O)NCC3CCCCC3)n2)c(C)o1 | 12.5 |
| CC(C)n1[nH]c(=O)c2c1NC(=O)CC2c1ccc(S(C)(=O)=O)cc1 (stereo not drawn) | -17.1 |
| CSCC1CCN(c2nc(N)ncc2C)CC1 | -9.1 |
| CC(C)[C@@H]1CN(Cc2c[nH]nc2-c2ccc(F)cc2)C[C@H]1NS(C)(=O)=O | -2.13 |
| Cc1cc(NC(=O)CN2CCc3cncnc3C2)on1 | 3.49 |

| Compound | cytotoxicity at 70.5 h [%] |
| --- | --- |
| CC(C)Cc1cc(CN2C[C@H]3CC[C@@H]2CN(Cc2cscn2)C3)n[nH]1 | 12.5 |
| CN(C)C(=O)C1CCC2(CCN(C(=O)Nc3ccc(F)cc3)CC2)O1 (stereo not drawn) | -12.4 |
| CCn1c(C)nnc1CN(C)C1CCN(CCc2ccncc2)C1 (stereo not drawn) | -3.16 |
| CNC(=O)COC1COC2(CCN(c3ncccn3)CC2)C1 (stereo not drawn) | -1.44 |
| Cc1nccn1CCCC(=O)N1CCCC(c2noc(C(C)C)n2)C1 (stereo not drawn) | -2.96 |
| Cc1ccc(C(=O)N2CCC[C@@H]2Cn2nnc3c(O)nc(C)nc32)cc1 | -2.37 |
| COc1cccc(OCC2CCCN(C(=O)c3ccc(N)nc3)C2)c1 (stereo not drawn) | -11.6 |
| Cn1cnc2c1CCN(Cc1csc(-c3ccc(F)cc3)n1)C2 | -3.43 |
| Cc1cc2nc(SCC(=O)N3CCOCC3)n(C(C)C)c(=O)c2[nH]1 | -5.42 |
| COCCN(CC(N)=O)CC1CCCN(C2Cc3ccccc3C2)C1 (stereo not drawn) | 7.41 |
| CN1CCO[C@@H]2CN(S(=O)(=O)c3ccc(F)cc3)CC[C@@H]2C1 | -1.86 |
| Cc1nc(CCNC(=O)NCc2ccc(N(C)C)nc2)cs1 | -8.72 |
| CN(Cc1cccc(Cl)c1)C(=O)Cn1nc(-c2ccc(F)cc2)oc1=O | -2.8 |
| O=C(NCCCOc1cccnc1)c1cn(CCc2ccccc2)nn1 | -7.58 |
| Cc1cccc(OC2CN(C(=O)C3CC(=O)N(C(C)(C)C)C3)C2)c1 (stereo not drawn) | -2.82 |
| CC(C)NC(=O)N1CCCC(Cn2cc(-c3ccc(F)cc3)nn2)C1 (stereo not drawn) | 23.4 |
| CCC(=O)NCc1cc(Br)c(OC)c(OC)c1 | -0.621 |
| Cc1cccc2c1nc(CCO)n2-c1ccc(NS(C)(=O)=O)nc1 | -8.44 |
| c1cncc(C2COC3(CCN(CC4CCOCC4)CC3)C2)c1 (stereo not drawn) | 1.21 |
| COc1ccc(NC2(C(=O)N3CCCn4cncc4C3)CCCC2)cc1 | -13 |
| CN1CCCC1c1ccnc(-c2ccccn2)n1 (stereo not drawn) | -1.8 |
| CC(C)(C)c1ncc(CNCC2CN(C3CC3)CCO2)s1 (stereo not drawn) | -2.48 |
| O=C(NCc1cn2cccnc2n1)C1CC(=O)N(Cc2cccnc2)C1 (stereo not drawn) | 2.43 |

| Compound | cytotoxicity at 70.5 h [%] |
| --- | --- |
| NC(=O)c1csc(C(=O)N2CCCC(n3cccn3)C2)c1 (stereo not drawn) | 1.27 |
| c1ccc(SCCN2CCN(CCn3cncn3)CC2)cc1 | -22.3 |
| Cc1cc(NCC2(O)CCOCC2)nc2ccccc12 | -8.29 |
| CCn1nccc1CNC(=O)C1CCCC1 | -6.56 |
| COc1ccc(-n2cnnc2SCC(C)(C)O)cn1 | -3.59 |
| Cc1cnccc1N1CCCN(Cc2ccc(-c3cc[nH]n3)o2)CC1 | -5.27 |
| Cc1cc(-c2cnc(NCc3ccncc3)nc2C(C)C)on1 | 2.62 |
| CC(C)OCCS(=O)(=O)c1nccn1-c1cccc(F)c1 | -9.1 |
| Cn1nnc(NCc2ccc(-c3ccc(Cl)cc3)o2)n1 | -4.59 |
| CC(C)CNC(=O)CN(Cc1ccc(F)cc1)S(C)(=O)=O | -5.67 |
| CCc1nc2c(c(N3CCOCC3)n1)CCN(C(=O)c1ccon1)CC2 | 6.74 |
| Cc1cnn(CCC(=O)N2CCN(c3ccc(C#N)cn3)CC2)c1 | -3.08 |
| O=C1OC2(CCNCC2)CN1CC(=O)N1CCC1c1cccs1 (stereo not drawn) | -6.81 |
| Cc1noc(C2(NC(=O)c3cccnc3O)CCCCC2)n1 | 2.75 |
| CC(C)(O)CCc1ccc(C(=O)N2CCN(CC(F)(F)F)CC2)cc1 | 3.68 |
| CCc1noc(CNC2CCCN(Cc3noc(C4CC4)n3)C2)n1 (stereo not drawn) | -5.98 |
| COc1cnc(C2(O)CCN(C(=O)c3scnc3C)CC2)c(OC)n1 | 6.58 |
| CN(C)C(=O)CN1CCO[C@H]2CN(Cc3ccoc3)C[C@H]21 | -4.25 |
| Cc1cccn2cc(CNS(=O)(=O)N3CCOCC3)nc12 | -5.24 |
| CC1N(CC2CC2)C(=O)COC12CCN(C(=O)c1cccs1)CC2 (stereo not drawn) | -5.2 |
| O=S(=O)(NC1CCC2(CC1)OCCO2)c1ccccc1Br | -1.96 |
| Cc1cc(=O)[nH]c(-n2nc(-c3cccs3)cc2N)n1 | 13.9 |
| CN(C)C(=O)CO[C@H]1CN(Cc2ccccc2)[C@@H]2CCCO[C@H]12 | 34.3 |

| Compound | cytotoxicity at 70.5 h [%] |
| --- | --- |
| COc1cccc(OC)c1C(=O)N1CC(=O)N(C2CCC2)CC(O)C1 (stereo not drawn) | -0.00128 |
| CC(C)OCCCN(CC(=O)N1CCNCC1)C(=O)c1cccc(Cl)c1 | -18.5 |
| Cc1nccn1Cc1nnc(C2CCCN(c3cnccn3)C2)n1C (stereo not drawn) | -18.6 |
| CCc1nc(C)c(C(=O)NCCNc2cnccn2)s1 | 3.09 |
| c1ccc(CN2CCOC3CNCC[C@H]32)cc1 (stereo partly drawn) | 13.7 |
| CCOC1COC2(CCN(Cc3ccc(C)cc3)CC2)C1 (stereo not drawn) | -11.9 |
| COCCNC(=O)Nc1ccc(-n2cncn2)c(C(F)(F)F)c1 | -3.51 |
| Cc1cccc(CN2CCO[C@@H]3CC(COc4ccccn4)C[C@H]32)n1 (stereo partly drawn) | 5.17 |
| CCOc1c(Cl)cc(/C=C/c2ncc(C(=O)O)s2)cc1OC | -18.4 |
| CC(C)C(O)C(C)(C)CNC(=O)NCc1ccc(-n2cncn2)cc1 (stereo not drawn) | -1.82 |
| CCN(CCOC)C(=O)c1ccc2c(c1)nc(N1CC[C@H](O)C1)n2C | -8.67 |
| O=C(NCc1ccccn1)[C@H]1COC[C@H]2CN(CC3CC3)C[C@H]21 | -10.6 |
| CC(C)NC(=O)[C@]12COC[C@H]1CN(Cc1cnn(C)c1)C2 | -4.74 |
| Cc1cc(C(=O)NS(=O)(=O)Cc2ccon2)c(C)n1C(C)C | -4.61 |
| COCCN1CC[C@H](O)[C@@H]1Cc1ccccc1 | -16.7 |
| CC(=O)N1CCc2c(nc(N(C)C)nc2NCCCn2ccnc2C)C1 | -4.2 |
| Cc1c(Br)c(C(=O)NC(C)c2ccccc2)nn1C (stereo not drawn) | -13 |
| CCCC(C)NCc1cccnc1N1CCN(c2ccccn2)CC1 (stereo not drawn) | -5.62 |
| CCn1cc(NC(=O)C2CCN(Cc3nc(C)c(C)s3)CC2)cn1 | -5.47 |
| Cc1nc(-c2ccsc2)ccc1C(=O)N1CCn2c(C)nnc2C1 | 11.2 |
| Fc1ccc(CNc2ccccc2Cn2cncn2)cc1 | -7.99 |
